Results as given in patent US20230055457A1, “CELL EXPANSION METHODS FOR PREVENTING CELL SENESCENCE AND PRESERVING THE THERAPEUTIC POTENCY OF HUMAN MESENCHYMAL STEM CELLS” (THE FLORIDA STATE UNIVERSITY RESEARCH FOUNDATION, INC., priority 2020, published 2023).
Entries after “also recorded” stand apart in the source; their conditions may differ.

Tests used:
senescent hMSCs [1] = experiment: Colony forming unit-fibroblast (CFU-F) assay; type: cell-based, human; conditions: senescent hMSCs with NAM treatment
Experimental: Colony forming unit-fibroblast (CFU-F) were determined as following: hMSCs were harvested and re-plated at the density of 15 cells/cm2 on 60 cm2 culture dish and cultured for another 14 days in CCM. Cells were then stained with 20% crystal violet solution in methanol for 15 minutes at room temperature (RT) and washed with phosphate-buffered saline (PBS) wash, the numbers of individual colonies were counted manually.

senescent hMSCs [2] = experiment: Mitophagy measurement; type: cell-based, human; conditions: senescent hMSCs with NAM treatment
Experimental: (§1) For autophagy measurement, aliquots of cell suspension were incubated with 20 μM Cyto-ID Green (Enzo Life Sciences, Farmingdale, N.Y.), a fluorescent dye that selectively labels accumulated autophagic vacuoles, at 37° C. for 30 minutes, and analyzed by flow cytometry (BD Biosciences, San Jose, Calif.). For mitophagy measurement, […]

senescent hMSCs [3] = experiment: Basal autophagy by Cyto-ID Green flow cytometry; type: cell-based, human; conditions: senescent hMSCs with NAM treatment
Experimental: as §1

hMSC = experiment: Mitochondrial fitness of hMSCs; type: cell-based, human
Experimental: (§2) hMSCs at passage 2 were expanded and cultured in complete culture medium(CCM). Cells were grown to 70-80% confluence and then harvested by incubation with 0.25% trypsin/EDTA. Harvested cells were re-plated at a density of 2,000 cells/cm^2 and sub-cultured up to Passage 12 in a standard CO2 incubator. hMSC sat Passage 5 (P5) and passage 12 (P12) were used for experiments. Stem cell properties including senescence, stem cell gene, cell cycle, proliferation rate were determined. Gas chromatography-mass spectrometry (GC-MS) and seahorse flux analyzer were used for characterization of energy metabolism phenotype. Mitochondrial functions were assessed by mitochondrial mass, membrane potential, electron transport complex activity and biogenesis. NAD+/NADH and Sirt-1 and -3 level was also measured in P5 and P12 hMSCs. NAD+ precursor nicotinamide (NAM) was used in CCM to adjust NAD+ level intracellularly.

senescent hMSCs [4] = experiment: Mitochondrial membrane potential (MMP), TMRM flow cytometry; type: cell-based, human; conditions: senescent hMSCs with NAM treatment
Experimental: For MMP measurement, trypsinized MSCs were washed by centrifugation in warm Hank's Balanced Salt Solution (HBSS). Cell suspension was incubated with tetramethylrhodamine, methyl ester (TMRM) (Molecular Probe, Eugene, Oreg.) at 37° C., washed with HBSS, and analyzed by flow cytometry (BD Biosciences, San Jose, Calif.).

senescent hMSCs [5] = experiment: Intracellular NAD+ and NADH level of hMSCs; type: cell-based, human
Experimental: as §2

[6] = tested on: electron transport chain complex I; experiment: Mitochondrial complex I (ETC-I) activity; type: cell-based, human; conditions: senescent hMSCs with NAM treatment
Experimental: hMSCs were centrifuged, re-suspended in DI water, and heated immediately in a boiling water bath for 15 minutes. The mixture was centrifuged and ATP containing supernatant was collected. Upon measurement, 10 μL of ATP solution was mixed with 100 μL of the luciferin-luciferase reagent, and the bioluminescent signal was measured using an Orion Microplate Luminometer (Bad Wildbad, Deutschland) after 15 min incubation at room temperature. Activity of mitochondrial complex I was determined using the Complex I Enzyme Activity Microplate Assay Kit (Abcam, Cambridge, Mass.) according to the kit instructions.

senescent hMSCs [7] = experiment: Cellular senescence by SA-β-Gal activity assay; type: cell-based, human; conditions: senescent hMSCs with NAM treatment
Experimental: Cellular senescence was evaluated by SA-β-Gal activity assay kit (Sigma, St. Louis, Mo.) as described in manufacture instructions.

[8] = tested on: muscle stem cells (muscle-SCs) and hematopoietic stem cells (HSC); conditions: aged muscle-SCs and HSCs, restoring autophagy; cited from earlier work
[9] = continuous supplement of NAM (1 mM), FIG. 17

## NC(=O)c1cccnc1 [NAM, nicotinamide]
Senescent hMSCs [1]; in words
  colony forming ability: improved
Senescent hMSCs [1]; control 3 CFU
  colony forming ability of hMSCs (CFU-F): 11 CFU
Senescent hMSCs [2]
  mitophagy: restored; also recorded: increased
Senescent hMSCs [3]
  Basal autophagy level: restored; also recorded: increased
hMSC; [9]
  mitochondrial fitness: maintains
hMSC; senescent hMSCs, supplement of NAM
  recovery of mitochondria: recovery
Senescent hMSCs [4]
  mitochondrial membrane potential (MMP): enhanced; also recorded: increased
Senescent hMSCs [5]; [9]
  hMSC cellular NAD+ level: maintains
Senescent hMSCs [5]; late passage hMSCs with culture-induced senescence, 96 h of NAM treatment
  Cellular NAD+ level: significantly increased; also recorded: potential improvement
Senescent hMSCs [5]; stem cells in culture, FIG. 16
  boosting intracellular NAD+ level, NAM compared to NMN: better
  boosting intracellular NAD+ level, NAM compared with NR: no significant difference
[6]
  ETC-I activity: enhanced; also recorded: increased
Senescent hMSCs [7]
  hMSC senescence, SA-β-gal activity: decreased; also recorded: reduced

## NC(=O)c1ccc[n+]([C@@H]2O[C@H](COP(=O)([O-])O)[C@@H](O)[C@H]2O)c1 [NMN, nicotinamide mononucleotide]
Senescent hMSCs [5]; stem cells in culture, FIG. 16
  boosting intracellular NAD+ level, NAM compared to NMN: NAM is better

## NC(=O)c1ccc[n+]([C@@H]2O[C@H](CO)[C@@H](O)[C@H]2O)c1 [NR, nicotinamide riboside]
Senescent hMSCs [5]; stem cells in culture, FIG. 16
  boosting NAD+/NADH ratio, NAM compared with NR: no significant difference
  boosting intracellular NAD+ level, NAM compared with NR: no significant difference

## NCCCCNCCCN [spermidine]
[8]
  stem cell functions in vivo: restored
